The results in this text go back to patent publication EP2974714B1, “USE OF DERIVATIVES WITH C-O-P BONDS IN PATIENTS WITH RENAL FAILURE” (LABORATORIS SANIFIT, S.L., priority 2013, dated 2014).

The subject of series [1] is vit D-induced cardiovascular calcification in rats. Nature of the series: Inhibition of vit D-induced (300,000 IU/kg x 3) cardiovascular calcification by s.c. IP6. Type of series: in vivo, male SD rats. The procedure: Experimental: male SD rats were divided into 9 groups. Two of said groups (sham and control groups) received s.c. saline 2 ml/kg; 6 groups received s.c. […] One group was treated with a s.c. Alzet pump loaded with 200 mg/ml IP6. Calcification was induced by oral administration of 300,000 IU/kg vitamin D (2 ml/kg) for 3 days starting on treatment day 3. […] The calcium content in heart, aorta and kidneys was determined after treatment for 7 days.

A short description of series [2]: PK profile of IP6 by 4 h intravenous infusion in normal and uraemic rats. Type of series: in vivo, Wistar rats. The method, then: Experimental: Wistar rats with normal kidney function were treated daily with a dose of 10 or 50 mg/kg IP6 by intravenous infusion over 4 h. Plasma samples were obtained at different timepoints up to 4 hours on day 0. The animals were then treated orally with 600 mg/kg (p.o.) adenine for 10 days to induce renal impairment. The animals were treated with alpha-calcidol (300 ng/kg) on days 11 and 13 and plasma samples were collected at different timepoints up to 4 hours on day 14. The plasma IP6 levels were quantified for both groups.

For series [3], the system named is tissue calcification in an animal model of chronic renal impairment (adenine). Nature of the series: Adenine model, bolus-type s.c. administration. Type of series: in vivo, male Wistar rats. The conditions noted are these: s.c. bolus 3, 10 and 30 mg/kg, 28 days, adenine uraemic rats. The procedure: Experimental: CKD was induced in 4 groups (n=12) of male Wistar rats by oral (p.o.) treatment with adenine (600 mg/kg/day) daily for 10 days. After treatment with adenine, the rats received alpha-calcidol at a dose of 300 ng/kg (3x/week, p.o.) until day 28. From day 0 until sacrifice (day 28), the animals were treated with a 2 ml/kg s.c. bolus of 0, 3, 10 and 30 mg/kg IP6. At each treatment, 3 additional animals were included to evaluate the […] for IP6. After 28 days the aorta, heart and right kidney were collected, and the tissue calcium content determined.

The subject of series [4] is vitamin D-induced cardiovascular calcification in rats. Nature of the series: Inhibition of vit D-induced (75,000 IU/kg x 5) cardiovascular calcification by intravenous IP6. Type of series: in vivo, male Sprague Dawley (SD) rats. The method, then: Experimental: male Sprague Dawley (SD) rats were divided into 7 groups and IP6 was administered intravenously daily for 14 days at a dose of 0, 0.05, 0.1, 0.5, 1, 5 and 10 mg/kg. Calcification was induced by oral administration of 75,000 IU/kg vitamin D on treatment days 3 to 7. Samples were collected. On day 14 the aortas and hearts of the animals were collected to quantify calcification.

Series [5] can be described thus: In vitro binding kinetics of IP6 to HAP. The conditions noted are these: 130 mg HAP. The procedure:
Experimental: 130 mg HAP was incubated (in triplicate) with 7.6 µM IP6, at 37°C, pH 7.4, for different time intervals while stirring continuously.

The mark [6] stands for this setting: uraemic rats, 10 mg/kg i.v. infusion over 4 h.
Setting [7] is: uraemic rats, 50 mg/kg i.v. infusion over 4 h.
The mark [8] stands for this setting: i.v. dose of between 1 and 10 mg/kg daily for 14 days.

Turning to `O=P(O)(O)O[C@H]1[C@H](OP(=O)(O)O)[C@@H](OP(=O)(O)O)[C@H](OP(=O)(O)O)[C@@H](OP(=O)(O)O)[C@H]1OP(=O)(O)O` [IP6, inositol hexaphosphate], the reduction in calcification in series [1] (prolonged administration, s.c. Alzet pump loaded with 200 mg/ml IP6) is reported as 85%. The “efficacy (inhibition of calcification)” value in series [1] (s.c. doses of 60 and 100 mg/kg) is reported as “approximately 60%”. Further, in series [1] (s.c., 7 days treatment), the “minimum dose that produced a significant effect on calcification” value came out at 10 mg/kg. Moreover, in series [1] (s.c., dose-response), the “EC50 for inhibition of aortic calcification” value was found to be 3.75 mg/kg and the “Emax for inhibition of aortic calcification” value is reported as 65.5%. The concentration at 4 h in series [2] (Wistar, rat, plasma, iv, uraemic rats, 10 mg/kg i.v. infusion over 4 h, read-out: plasma concentration after 4 hours) is 1200 nM. This compound also gave a peak plasma concentration in series [2] (normal rats, 10 mg/kg i.v. infusion over 4 h) of 8.4 µM. In addition, the peak plasma concentration in series [2] (normal rats, 50 mg/kg i.v. infusion over 4 h) amounted to 68.4 µM. For the same compound, in series [2] (setting [6]), the peak concentration is 2.8 µM and the “time of peak concentration” value stood at 30 min. In series [2] (setting [7]), the peak plasma concentration came to 24.6 µM and the “time of peak plasma concentration” value came to 4 h. Besides, the “period with approximately constant concentration” value in series [2] (uraemic rats, 50 mg/kg i.v. infusion, from hour 1 to hour 4) is 3 h. Also, in series [3], the “calcification inhibition (aorta, heart, right kidney)” value was “no evidence of calcification inhibition”. Further, the “effect on the mineral content of the aorta and heart” value in series [4] (i.v. 0.05 to 0.5 mg/kg daily for 14 days) is reported as “did not affect”. Also, in series [4] (setting [8]), the “reduction of calcification in aorta” value was “up to 60%” and the “reduction of calcification in heart” value is listed as no more than 68%. In addition, in series [5] (7.6 µM IP6, 37°C, pH 7.4), the “time at which adsorption maximum is reached” value is 60 min. Moreover, the “share of maximum binding achieved” value in series [5] (after 5 minutes, 7.6 µM IP6) is reported as “Around 80%”.
